System: SNAP-tag (hINS-SNAP) in INS-1 cells
Test: Dual-color labeling (TMR-Star, BTP block, BG505) of living INS-1 cells expressing hINS-SNAP; co-localization analysis
Type: cell-based, rat
Protocol: The first labeling was carried out for 15 min with 2 μM TMR (red) in normal media (I ml per well), followed by 2×PBS wash and 30 min, incubation in media without the SNAP substrate. The labeling with 10 μM BTP lasted 20 min. followed by two washings with PBS and 30 min incubation in media without BTP. The period between the BTP administration and the BG505 (green) administration was 4 hour long, so that any unbound BTP had sufficient time to be cleared out of the cells, thus allowing the labeling of newly synthesized hlns-SNAP. During this period […] additional washings were performed: two times with PBS and two times with media.
Cells were then incubated with 10 μM BG505 for 30 min, followed by two washings with PBS, 30 min incubation in media and another PBS washing. After the last washing, the cells were fixed (4% PFA, pH: 7.4 for 10 min at 4° C.) and embedded (ProLong Gold antifade reagent with DAPI, P36931, Molecular Probes). […]
Software analysis of the acquired images allowed the generation of images representing the co-localized pixels from both channels and also the characteristic scattered plots. […] The calculated Pearson's coefficients (10 μM BTP: 0.515; 0 μM BTP: 0.829) calculated according to Bolte et al., are in agreement with this interpretation.

SNAP-tag (hINS-SNAP) in INS-1 cells, sequence (P16455 1-182 C62A/K125A/A127T/R128A/G131K/G132T/M134L/R135S/C150S/N157G/S159E limits assumed): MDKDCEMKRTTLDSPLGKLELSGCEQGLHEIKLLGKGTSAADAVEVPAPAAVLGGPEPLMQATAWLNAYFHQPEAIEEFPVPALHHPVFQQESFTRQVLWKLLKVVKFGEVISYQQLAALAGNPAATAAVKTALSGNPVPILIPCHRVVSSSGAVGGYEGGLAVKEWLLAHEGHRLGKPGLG

bromothenylpteridine [BTP]
Pearson's coefficient (co-localization of TMR and BG505 pixels) (INS-1 cells exposed sequentially to TMR, 10 μM BTP and BG505, control without blocker (0 μM BTP): 0.829): 0.515 | Co-localized pixels (white) of red and green channels (blocking step with BTP interposed between sequential labelings with TMR-Star and BG505, many co-localized pixels when BTP omitted): No co-localization

Reference: patent US20160370353A1, “METHOD FOR DISTINGUISHING SECRETORY GRANULES OF DIFFERENT AGES” (TECHNISCHE UNIVERSITÄT DRESDEN MEDIZINISCHE FAKULTÄT CARL …, priority 2008, published 2016)
